Entries after “also recorded” stand apart in the source; their conditions may differ.
Assays:
[1] = system: RT112 bladder cancer cell line; experiment: Cell proliferation assay (methylene blue, 96-well), RT112; type: cell-based; details: Homo sapiens, RT-112; RT112 bladder cancer cells, 72 h, average of several independent assays; read-out: IC50 (nM) ± SD, proliferation inhibition
Experimental: (§1) The bladder carcinoma cell lines are grown in MEM EBS (Minimum Essential Medium with Earls Basal Salts) (Amimed, Allschwil, Switzerland, #1-31F0-I) supplemented with 1% L-glutamine (Amimed #5-10K00-H), 1% MEM NEAA (MEM Non-essential Amino Acid Solution) (Amimed #5-13K00-H), 1% Na- pyruvate (Amimed #5-60F00-H) and 10% FCS (Gibco, Invitrogen AG, Basel, Schweiz, #10082-147).
(§2) In detail, FGF-R1, FGF-R2 and FGF-R4 expression is determined by Western Blot using specific antibodies, respectively: sc-121 (Santa Cruz), sc-122 (Santa Cruz) and sc-124 (Santa Cruz). […] Cell proliferation is measured in 96-well plates. […] Upon addition of 200 μl/well HCl (3%) and incubation for 30 min at RT on a plate shaker, the Optical Density (OD) at 650 nm is measured. The concentration of inhibitor 1 providing 50% of proliferation inhibition is calculated using Excel module.
(§3) The FGF-R dependency as well as sensitivity to inhibitor 1 and/or to inhibitor 2 for each of the indicated cell lines is characterized as indicated above. The effect of inhibitor 1 and inhibitor 2 on cell viability is assessed by means of proliferation assays; the IC50s shown are the average IC50s of several independent assays (their number given by N).

[2] = system: RT4 bladder cancer cell line; experiment: Cell proliferation assay (methylene blue, 96-well), RT4; type: cell-based; details: Homo sapiens; RT4 bladder cancer cells, 72 h, average of several independent assays; read-out: IC50 (nM) ± SD, proliferation inhibition
Experimental: as §1, §2, §3

[3] = system: VMCUB1 bladder carcinoma cell line; experiment: Cell proliferation assay (methylene blue, 96-well), VMCUB1; type: cell-based, human; details: for IC50: Homo sapiens, VM-CUB-1, VMCUB1 bladder cancer cells, 72 h, read-out: IC50 (nM) ± SD, proliferation inhibition; for sensitivity of growth to inhibition (in words): VMCUB1 cells
Experimental: VMCUB-1: human urinary bladder transitional cell carcinoma established from a primary bladder carcinoma. Stage and histological grade are not recorded (Masters et al. 1986, loc. cit.). Cells are obtained from DSMZ ACC #400.
as §1
(§4) In detail, FGF-R1, FGF-R2 and FGF-R4 expression is determined by Western Blot using specific antibodies, respectively: sc-121 (Santa Cruz), sc-122 (Santa Cruz) and sc-124 (Santa Cruz). To determine the expression of FGF-R3, first FGF-R3 is immunoprecipitated with the antibody F-0425 from Sigma, and the immunocomplexes are subjected to Western Blot using the antibody F-0425 from Sigma. Cell proliferation is measured in 96-well plates. The cells are seeded in a volume of 100 μl per well in the growth media given above. For RT 112, RT4 and SUM52 8500 cells/well are seeded, for VMCUB1, J82, HT1197 and KMS11, 5000 cells/well are seeded, for OPM2 30000 cells/well are seeded. Medium containing FGF-R inhibitor 1, FGFR inhibitor 2 or (as control) DMSO is added 24 h after seeding, respectively. After 72 h, cells are fixed by addition of 25 μl/well glutaraldehyde (20%) for 10 min at room temperature (RT). Cells are then washed twice with 200 μl/well H2O and 100 μl Methylene Blue (0.05%) are added. After incubation for 10 min at RT, cells are washed 3× with 200 μl/well H2O. Upon addition of 200 μl/well HCl (3%) and incubation for 30 min at RT on a plate shaker, the Optical Density (OD) at 650 nm is measured. The concentration of inhibitor 1 providing 50% of proliferation inhibition is calculated using Excel module.
as §3

[4] = system: J82 bladder carcinoma cell line; experiment: Cell proliferation assay (methylene blue, 96-well), J82; type: cell-based, human; details: for IC50: Homo sapiens, J82 bladder cancer cells, 72 h, read-out: IC50 (nM) ± SD, proliferation inhibition; for sensitivity of growth to inhibition (in words): J82 cells
Experimental: J82: human urinary bladder transitional cell carcinoma established from a primary bladder carcinoma, histological grade G3, stage T3 (Masters et al. 1986, loc. cit.). Cells are obtained from ATCC # HTB-1.
as §1, §4, §3

[5] = system: HT1197 bladder carcinoma cell line; experiment: Cell proliferation assay (methylene blue, 96-well), HT1197; type: cell-based, human; details: for sensitivity of growth to inhibition (in words): HT1197 cells; for IC50: Homo sapiens, HT1197 bladder cancer cells, 72 h, read-out: IC50 (nM) ± SD, proliferation inhibition
Experimental: HT1197: human urinary bladder transitional cell carcinoma established from a recurrent bladder carcinoma, histological grade G4, stage T2 (Masters et al. 1986, loc. cit.). Cells are obtained from ATCC # CRL-1473.
as §1, §4, §3

[6] = system: OPM2 multiple myeloma cell line; experiment: Cell proliferation assay (methylene blue, 96-well), OPM2; type: cell-based; details: Homo sapiens, OPM-2; OPM2 multiple myeloma cells, 72 h; read-out: IC50 (nM) ± SD, proliferation inhibition
Text: (§5) OPM2 and KMS11: human multiple myeloma (MM) cell lines derived from end-stage disease patients. OPM2 cells are obtained from DSMZ ACC #50.
(§6) KMS11 cells are provide by Dr. T Otsuki, Kawasaki Medical School, Okayama, Japan. Both cell lines are reported to carry the t(4,14) translocation and express a mutated, constitutively activated form of FGF-R3. In particular, OPM2 cells harbour a mutation in the ATP binding pocket in the kinase domain, which results in a change of lysine in position 650 into glutamic acid. KMS11 cells harbor a mutation in the extracellular domain of the receptor changing tyrosine in position 373 into cysteine. Both cell lines are grown in RPMI 1640 (Gibco #21875) supplemented with 1% L-glutamine (Amimed #5-10K00-H) and 20% FCS (Gibco #10082-147).
as §2, with “module. […]” for “module.”

[7] = system: KMS11 multiple myeloma cell line; experiment: Cell proliferation assay (methylene blue, 96-well), KMS11; type: cell-based; details: Homo sapiens, KMS-11; KMS11 multiple myeloma cells, 72 h; read-out: IC50 (nM) ± SD, proliferation inhibition
Text: as §5, §6
as §2, with “module. […]” for “module.”

[8] = system: FRS-2 tyrosine phosphorylation in RT4 cells; experiment: FRS-2 tyrosine phosphorylation after FGF-R inhibitor treatment (IP/Western Blot), RT4 cells; type: cell-based, human; details: RT4 cells treated with inhibitor, FIG. 2A
Experimental: FIG. 2: Comparative analysis of FRS-2 phosphorylation following treatment with the FGF-R inhibitor PD173074 (inhibitor 1, see Methods in Example 1) in the RT4 cells, in the case of RT112 with TKI258/CHIR258, 4-Amino-5-fluoro-3[6-(4-methyl-1-piperazinyl)-1H-benzimidazol-2-yl]-2(1H)-quinolinone (inhibitor 2, see Methods in Example 1). The cell lines indicated are treated as shown. FRS-2 tyrosine phosphorylation is determined by immunoprecipitation with a specific FRS-2 antibody followed by […] Western Blotting, or by western blot using an antibody that detects phosphorylated Tyr196 on FRS2. […] Inhib. 1=inhibitor 1, Inhib. 2=inhibitor 2, DMSO=dimethyl sulfoxide.
(§7) Cells are solubilized in 1% Triton extraction buffer containing protease and phosphatase inhibitors (“lysis buffer” 50 mM Tris pH 7.5, 150 mM NaCl, 1 mM EGTA, 5 mM EDTA, 1% Triton, 2 mM NaVanadate, 1 mM PMSF and protease inhibition cocktail from Hoffmann-LaRoche, Basel, Switzerland, #1187358001). Lysates are clarified by centrifugation at 12000×g for 15 min and protein concentration is determined using the DC Protein Assay Reagents (Bio Rad, Bio-Rad Laboratories, Inc., Hercules, Calif., USA, #500-0116) (an assay based on the method of Bradford, M., see Anal. Biochem., 72, 248 (1976), employing Coomassie Blue®, ICI) and a Bovine Serum Albumin (BSA) standard. […]

[9] = system: SUM52 breast carcinoma cell line; experiment: Cell proliferation assay (methylene blue, 96-well), SUM52; type: cell-based; details: Homo sapiens; SUM52 breast cancer cells, 72 h; read-out: IC50 (nM) ± SD, proliferation inhibition
Experimental: as §4, with “After 72 h, cells are fixed by addition of 25 μl/well glutaraldehyde (20%) for 10 min at room temperature (RT). Cells are then washed twice with 200 μl/well H2O and 100 μl Methylene Blue (0.05%) are added. After incubation for 10 min at RT, cells are washed 3× with 200 μl/well H2O.” left out
as §3

[10] = system: FRS-2 tyrosine phosphorylation in RT112 cells; experiment: FRS-2 tyrosine phosphorylation after FGF-R inhibitor treatment (IP/Western Blot), RT112 cells; type: cell-based, human; details: RT112 cells treated with inhibitor, FIG. 2B
Experimental: The cell lines indicated are treated as shown. FRS-2 tyrosine phosphorylation is determined by immunoprecipitation with a specific FRS-2 antibody followed by anti-FRS-2 Western Blotting, or by western blot using an antibody that detects phosphorylated Tyr196 on FRS2.
Immunocomplexes are collected with protein A- or protein G-sepharose (Sigma, # P-9424; Sigma, # P-3296) and washed 3 × with lysis buffer. Bound proteins are released by boiling in 2 × sample buffer (20% SDS, 20% glycerol, 160 mM Tris pH 6.8, 4% β-mercaptoethanol, 0.04% bromo-phenol blue). […]

[11] = system: FRS-2 tyrosine phosphorylation in RT112 cells; experiment: FRS-2 tyrosine phosphorylation upon growth factor stimulation (IP/Western Blot), RT112 cells; type: cell-based, human; details: aFGF/heparin 50 ng/ml//5 μg/ml, EGF 10 ng/ml, insulin 5 μg/ml, FIG. 3
Experimental: (§8) FIG. 3: Comparative analysis of FRS-2 tyrosine phosphorylation upon growth factor stimulation: The bladder cancer cell lines RT112 and […] are stimulated with aFGF/heparin (50 ng/ml//5 μg/ml), EGF (10 ng/ml) (from R & D Systems, Inc., Minneapolis, Minn., USA; #236-EG-200) or insulin (5 μg/ml) (Sigma, Sigma-Aldrich, Inc., St. Louis, Mo., USA; #1882). Cells are lysed and total protein lysates are recovered. FRS-2 tyrosine phosphorylation is determined by immunoprecipitation followed by anti-pTyr antibody Western Blotting, using antibodies mentioned in Table 1 of Example 1. […] Equal amount of MAPK protein is monitored by Western Blotting with α-MAPK (MAPK in Table 1 in Example 1). […]
as §7

[12] = system: MAPK activation in RT112 cells; experiment: MAPK activation upon growth factor stimulation (anti-phosphoMAPK Western Blot), RT112 cells; type: cell-based, human; details: EGF 10 ng/ml, insulin 5 μg/ml, FIG. 3
Experimental: as §8, §7

IC50 [1] [nM]	IC50 [2] [nM]	IC50 [3] [nM]	IC50 [4] [nM]	IC50 [5] [nM]	IC50 [6] [nM]	IC50 [7] [nM]	IC50 [9] [nM]	Molecule	sensitivity of growth to inhibition (in words) [3]	sensitivity of growth to inhibition (in words) [4]	sensitivity of growth to inhibition (in words) [5]	effect on FRS-2 tyrosine phosphorylation [8]	effect on FRS-2 tyrosine phosphorylation [10]	induction of FRS-2 tyrosine phosphorylation [11]	MAPK activation (pMAPK) [12]
14 ± 3	28 ± 8	> 3000	> 3000	> 3000	148 ± 31	50 ± 14	–	CCN(CC)CCCCNc1ncc2cc(-c3cc(OC)cc(OC)c3)c(NC(=O)NC(C)(C)C)nc2n1 [Inhibitor 1, PD173074]	resistant to inhibition	resistant to inhibition	resistant to inhibition	abolish FRS-2 tyrosine phosphorylation; also recorded: completely inhibits FRS-2 phosphorylation	–	–	–
60 ± 20	134 ± 58	> 2000	> 3000	> 3000	–	93	190 ± 58	CN1CCN(c2ccc3nc(-c4c(N)c5c(F)cccc5[nH]c4=O)[nH]c3c2)CC1 [Inhibitor 2, 4-Amino-5-fluoro-3[6-(4-methyl-1-piperazinyl)-1H-benzimidazol-2-yl]-2(1H)-quinolinone]	resistant to inhibition	resistant to inhibition	resistant to inhibition	–	abolish FRS-2 tyrosine phosphorylation	–	–
–	–	–	–	–	–	–	–	insulin	–	–	–	–	–	fail to induce phospho-FRS-2	activate MAPK

From patent US20120315648A1, “METHOD OF IDENTIFICATION OF CELLS THAT SHOW SENSITIVITY TO MODULATION OF SIGNALING MEDIATED BY A FIBROBLAST GROWTH FACTOR RECEPTOR OR A VARIANT THEREOF” (priority 2007, published 2012)
